Results taken from US12077503B2, “Substituted cyclic amides and their use as herbicides” (FMC CORPORATION, priority 2015, dated 2024).

Assays:
Format in all cases: in vivo
[1] = system: wheat (Triticum aestivum); assay: Test A postemergence
Procedure, shortened: (§1)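 Preemergence soil spray on seeded pots or post-emergence spray on 1–2 leaf plants, in loam–sand blend. Greenhouse ~10 d. Visual rating 0–100 against untreated plants.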

[2] = system: giant foxtail (Setaria faberii); assay: Test A postemergence
Procedure, shortened: as §1

[3] = system: barnyardgrass (Echinochloa crus-galli); assay: Test A postemergence
Procedure, shortened: as §1

[4] = system: pigweed (Amaranthus retroflexus); assay: Test A postemergence
Procedure, shortened: as §1

[5] = system: Galium (catchweed bedstraw, Galium aparine); assay: Test A postemergence
Procedure, shortened: as §1

corn (Zea mays) = assay: Test A postemergence
Procedure, shortened: as §1

Kochia (Kochia scoparia) [6] = assay: Test A postemergence
Procedure, shortened: as §1

[7] = system: ryegrass, Italian (Italian ryegrass, Lolium multiflorum); assay: Test A postemergence
Procedure, shortened: as §1

[8] = system: ragweed (common ragweed, Ambrosia elatior); assay: Test A postemergence
Procedure, shortened: as §1

[9] = system: blackgrass (Alopecurus myosuroides); assay: Test A postemergence
Procedure, shortened: as §1

[10] = system: sedge, umbrella (small-flower umbrella sedge, Cyperus difformis); assay: Test B flooded paddy test; details: Flood, 0 to 100 scale where 0 is no effect and 100 is complete control, 13 to 15 d
Procedure, shortened: (§2)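 Visual ratings (0 none to 100 complete control) are relative to untreated plants, taken 13–15 d after treatment in a greenhouse. Test material went straight into floodwater standing 3 cm above the soil, kept constant, on plants at the 2-leaf stage.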

[11] = system: ducksalad (Heteranthera limosa); assay: Test B flooded paddy test; details: Flood, 0 to 100 scale where 0 is no effect and 100 is complete control, 13 to 15 d
Procedure, shortened: as §2

[12] = system: barnyardgrass (Echinochloa crus-galli); assay: Test B flooded paddy test; details: Flood, 0 to 100 scale where 0 is no effect and 100 is complete control, 13 to 15 d
Procedure, shortened: as §2

rice (Oryra sativa) = assay: Test B flooded paddy test; details: Flood, 0 to 100 scale where 0 is no effect and 100 is complete control, 13 to 15 d
Procedure, shortened: as §2

[13] = system: giant foxtail (Setaria faberii); assay: Test A preemergence; details: for Plant response rating, Foxtail, Giant: preemergence
Procedure, shortened: as §1

[14] = system: barnyardgrass (Echinochloa crus-galli); assay: Test A preemergence; details: for Plant response rating, Barnyardgrass: preemergence
Procedure, shortened: as §1

[15] = system: pigweed (Amaranthus retroflexus); assay: Test A preemergence; details: for Plant response rating, Pigweed: preemergence
Kochia (Kochia scoparia) [16] = assay: Test A preemergence; details: for Plant response rating, Kochia: preemergence
Procedure, shortened: as §1

[17] = system: ryegrass, Italian (Italian ryegrass, Lolium multiflorum); assay: Test A preemergence; details: for Plant response rating, Ryegrass, Italian: preemergence
Procedure, shortened: as §1

[18] = system: ragweed (common ragweed, Ambrosia elatior); assay: Test A preemergence; details: for Plant response rating, Ragweed: preemergence
Procedure, shortened: as §1

[19] = 500 g ai/ha, postemergence, 0 to 100 scale, 0 no effect, 100 complete control
[20] = Postemergence, 125 g ai/ha, visual injury, 0 to 100 scale (0 no effect, 100 complete control), approx. 10 d
[21] = 125 g ai/ha, 0 to 100 scale (0 no effect, 100 complete control)
[22] = Preemergence, 500 g ai/ha, 0 is no effect, 100 is complete control
[23] = 125 g ai/ha, postemergence, visual injury after approximately 10 d, 0 to 100 scale (0 no effect, 100 complete control)
[24] = 500 g ai/ha, postemergence, visual injury, 0 to 100 scale (0 no effect, 100 complete control), approx. 10 d
[25] = 125 g ai/ha, visual rating after approx. 10 d, 0 to 100 scale where 0 is no effect and 100 is complete control
[26] = 500 g ai/ha, 0 to 100 scale, 0 = no effect, 100 = complete control

Cc1cccc(C2CNC(=O)C2C(=O)Nc2ccccc2C(F)(F)F)c1 (racemic) [Compound 374]
Plant response rating, Wheat [1, 19]: 40
Plant response rating, Wheat [1, 20]: 0
Plant response rating, Foxtail, Giant [2, 19]: 50
Plant response rating, Foxtail, Giant [2, 20]: 20
Plant response rating, Barnyardgrass [3, 19]: 90
Plant response rating, Barnyardgrass [3, 20]: 80
Plant response rating, Pigweed [4, 19]: 0
Plant response rating, Pigweed [4, 20]: 0
Plant response rating, Galium [5, 19]: 40
Plant response rating, Galium [5, 20]: 0
Plant response rating, Corn (corn (Zea mays); [19]): 20
Plant response rating, Corn (corn (Zea mays); [20]): 0
Plant response rating, Kochia (Kochia (Kochia scoparia) [6]; [19]): 0
Plant response rating, Kochia (Kochia (Kochia scoparia) [6]; [20]): 0
Plant response rating, Ryegrass, Italian [7, 19]: 0
Plant response rating, Ryegrass, Italian [7, 20]: 0
Plant response rating, Ragweed [8, 19]: 0
Plant response rating, Ragweed [8, 20]: 0
Plant response rating, Blackgrass [9, 19]: 50
Plant response rating, Blackgrass [9, 20]: 0
Plant response rating, Sedge, Umbrella ([10]; 250 g ai/ha): 0
Plant response rating, Ducksalad ([11]; 250 g ai/ha): 95
Plant response rating, Barnyardgrass ([12]; 250 g ai/ha): 60
Plant response rating, Rice (rice (Oryra sativa); 250 g ai/ha): 30
Plant response rating, Foxtail, Giant [13, 21]: 90
Foxtail, Giant plant response rating (0 to 100 scale) [13, 22]: 90
Plant response rating, Barnyardgrass [14, 21]: 90
Barnyardgrass plant response rating (0 to 100 scale) [14, 22]: 90
Plant response rating, Pigweed [15, 21]: 0
Pigweed plant response rating (0 to 100 scale) [15, 22]: 0
Plant response rating, Kochia (Kochia (Kochia scoparia) [16]; [21]): 0
Kochia plant response rating (0 to 100 scale) (Kochia (Kochia scoparia) [16]; [22]): 0
Plant response rating, Ryegrass, Italian [17, 21]: 0
Ryegrass, Italian plant response rating (0 to 100 scale) [17, 22]: 30
Plant response rating, Ragweed [18, 21]: 0
Ragweed plant response rating (0 to 100 scale) [18, 22]: 0

O=C1NCC(c2ccc(I)cc2)C1C(=O)Nc1ccccc1Cl (racemic) [Compound 704]
Plant response rating, Wheat [1, 23]: 0
Plant response rating, Wheat [1, 24]: 0
Plant response rating, Foxtail, Giant [2, 23]: 70
Plant response rating, Foxtail, Giant [2, 24]: 90
Plant response rating, Barnyardgrass [3, 23]: 70
Plant response rating, Barnyardgrass [3, 24]: 90
Plant response rating, Pigweed [4, 23]: 0
Plant response rating, Pigweed [4, 24]: 20
Plant response rating, Galium [5, 23]: 20
Plant response rating, Galium [5, 24]: 40
Plant response rating, Corn (corn (Zea mays); [23]): 0
Plant response rating, Corn (corn (Zea mays); [24]): 0
Plant response rating, Kochia (Kochia (Kochia scoparia) [6]; [23]): 0
Plant response rating, Kochia (Kochia (Kochia scoparia) [6]; [24]): 20
Plant response rating, Ryegrass, Italian [7, 23]: 0
Plant response rating, Ryegrass, Italian [7, 24]: 20
Plant response rating, Ragweed [8, 23]: 0
Plant response rating, Ragweed [8, 24]: 20
Plant response rating, Blackgrass [9, 23]: 0
Plant response rating, Blackgrass [9, 24]: 30
Plant response rating, Sedge, Umbrella ([10]; 500 g ai/ha): 0
Plant response rating, Ducksalad ([11]; 500 g ai/ha): 85
Plant response rating, Barnyardgrass ([12]; 500 g ai/ha): 30
Plant response rating, Rice (rice (Oryra sativa); 500 g ai/ha): 0
Plant response rating, Foxtail, Giant [13, 25]: 90
Plant response rating, Foxtail, Giant [13, 26]: 90
Plant response rating, Barnyardgrass [14, 25]: 40
Plant response rating, Barnyardgrass [14, 26]: 90
Plant response rating, Pigweed [15, 25]: 0
Plant response rating, Pigweed [15, 26]: 30
Plant response rating, Kochia (Kochia (Kochia scoparia) [16]; [25]): 0
Plant response rating, Kochia (Kochia (Kochia scoparia) [16]; [26]): 30
Plant response rating, Ryegrass, Italian [17, 25]: 0
Plant response rating, Ryegrass, Italian [17, 26]: 20
Plant response rating, Ragweed [18, 25]: 0
Plant response rating, Ragweed [18, 26]: 20
